In the experiment the test system is SW480 tumor cells. Nature of the experiment: Co-culture of NK-92 natural killer cells and SW480 tumor cells. Type of experiment: cell-based, Human. As to the method:
Immune cell co-culture experiments. Co-culture experiments were conducted with GFP+ SW480 or HCT-116 colorectal cancer cells and either NK-92 natural killer cells or TALL-104 T cells in a 48-well plate, in the presence or absence of 9-ING-41. HCT-116 cells were labeled using CellTracker™ Green CMFDA (5-chloromethylfluorescein diacetate), immune cells (NK-92, TALL-104) were labeled using CellTracker™ Blue CMAC Dye (7-amino-4-chloromethylcoumarin), and ethidium homodimer-1 (EthD-1) was used as a marker of cell death (Invitrogen, Thermo Fisher Scientific, Waltham, MA, USA).
Co-culture experiments were conducted with GFP+ SW480 colorectal cancer cells and either NK-92 natural killer cells or TALL-104 T cells at various effector/target ratios in a 48-well plate, in the presence or absence of 9-ING-41.
The inventors co-cultured green fluorescent SW480 tumor cells with NK-92 natural killer cells at a 1:1 effector target cell ratio (E:T) for twenty-four hours and imaged by fluorescence microscopy. Ethidium homodimer was used to visualize dead cells. The inventors obtained photographic images of the co-cultured cells.
An average baseline amount of NK-92-mediated tumor cell killing of about 39% occurred in the absence of drug.

As to `Cn1cc(C2=C(c3coc4ccc(F)cc34)C(=O)NC2=O)c2cc3c(cc21)OCO3` [9-ING-41], the “Natural Killer activity” value (IC50 dose, 1:1 E:T, 24 hours) is “stimulation of Natural Killer activity”. In addition, the “natural killer (NK-92) cell killing of colorectal cancer cells” value (compared to controls without drug treatment) is recorded as “significant increase”.

(Values after patent US20240009170A1, “INHIBITION OF GLYCOGEN SYNTHASE KINASE-3 (GSK-3)” (Brown University, priority 2020, published 2024).)
